The structures appear in SMILES notation.

From EP0745595A1, “3-(3-Aryloxyphenyl)-1-(substituted methyl)-s-triazine-2,4,6-oxo or thiotrione herbicidal agents” (American Cyanamid Company, priority 1995, dated 1996) come the findings set out here.

What all share (assay type): in vivo
Assay [1] has as its system SAGITTARIA PYGMAEA, L. The assay is described as follows: Preemergence weed control under flooded paddy conditions, SAGPY (Arrowhead (Pygmaea)). To be noted: for SAGPY: pre-weed; for Herbicidal effect rating, SAGPY: 0.500 kg/ha, preemergence, 3-4 weeks after treatment. In outline:
(§1)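 Visual 0-9 score (stand, vigor, malformation, size, chlorosis, appearance vs untreated control) taken 3-4 wk after treatment. Test compounds were added into flood water (1.5-3 cm over silt loam) as 50/50 v/v aqueous/acetone, equivalent to about 0.5-0.063 kg/ha a.i.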

Assay [2] deals with ZEA MAYS L. Put plainly: Preemergence herbicidal evaluation, ZEAMX (Corn, Field). The conditions noted are these: for ZEAMX herbicidal rating: rated four to five weeks after treatment. In a few lines: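 Preemergence herbicidal activity on field corn: seeds in potting soil were sown atop roughly one inch of soil in separate pint cups, treated, and grown under standard greenhouse care. Four to five weeks post-treatment, stand, vigor, malformation, size, chlorosis and overall appearance were compared with a control and scored 0-9.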

In assay [3] the test system is CYPERUS SEROTINUS, ROTTB. The assay is described as follows: Preemergence weed control under flooded paddy conditions, CYPSE (Flatsedge). To be noted: for CYPSE: pre-weed; for Herbicidal effect rating, CYPSE: 0.500 kg/ha, preemergence, 3-4 weeks after treatment. In a few lines: as §1
Assay [4] concerns ORYZA SATIVA, L. TEBONNET
The assay is described as follows: Postemergence herbicidal evaluation, ORYSAT (Rice, Tebonnet). Further details: key: 0-9 visual rating scale vs untreated control. In a few lines:
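This postemergence greenhouse test used Oryza sativa cv. Tebonnet seedlings grown about two weeks in jiffy flats. Test material in 50/50 acetone/water with 0.5% TWEEN®20 surfactant was applied through a spray nozzle at 40 psi. Four to five weeks later, stand, vigor, malformation, size, chlorosis and overall appearance were rated 0-9 relative to a control, and repeat tests were averaged.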

For assay [5], the system named is […], PRESL. The assay is described as follows: Preemergence weed control under flooded paddy conditions, MOOVA (Monochoria). The conditions noted are these: for MOOVA: pre-weed; for Herbicidal effect rating, MOOVA: 0.500 kg/ha, preemergence, 3-4 weeks after treatment. In outline: as §1
The subject of assay [6] is CASSIA OBTUSIFOLIA, L. Put plainly: Postemergence herbicidal evaluation, CASOB (Sicklepod). Further details: key to CASOB rating / Herbicidal effect rating, CASOB / CASOB: 0-9 visual rating scale vs untreated control. In outline:
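Postemergence foliar spray at approximately 0.125–0.500 kg/ha onto two-week seedlings; greenhouse hold, then 0–9 visual injury rating after 4–5 weeks.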

The test system of assay [7] is GLYCINE MAX(L) MERR. CV. WILLIAMS
Put plainly: Preemergence herbicidal evaluation, GLXMAW (Soybean, Williams). The conditions noted are these: for GLXMAW herbicidal rating: rated four to five weeks after treatment. In outline:
(§2)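 Greenhouse preemergence test; treated soil cups received compound in aqueous acetone (about 0.125 to 0.50 kg/ha) right after sowing and were assessed visually 4-5 weeks later on a 0-9 scale compared with control plants.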

For assay [8] the test system is unchanged. The assay is described as follows: Postemergence herbicidal evaluation, GLXMAW (Soybean, Williams). The arrangement: key to GLXMAW rating / Herbicidal effect rating, GLXMAW / GLXMAW: 0-9 visual rating scale vs untreated control. In outline:
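Herbicidal injury to Williams soybean was assessed after a postemergence spray of two-week-old seedlings grown in jiffy flats. Compounds were dispersed in an acetone/water (50/50) mixture with 0.5% TWEEN®20 surfactant and applied at 40 psi. After four to five weeks in the greenhouse, stand, vigor, malformation, size and chlorosis were compared against a control on a 0-9 scale, and results from replicate tests were averaged.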

The test system of assay [9] is AMBROSIA ARTEMISIIFOLIA, L. The assay is described as follows: Preemergence herbicidal evaluation, AMBEL (Ragweed, Common). The conditions noted are these: for AMBEL herbicidal rating: rated four to five weeks after treatment. In a few lines: as §2
Assay [10] concerns CYPERUS IRIA. The assay is described as follows: Preemergence weed control under flooded paddy conditions, CYPIR (Rice Flatsedge). The conditions noted are these: 0.500 kg/ha, preemergence, 3-4 weeks after treatment. In a few lines: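 This preemergence test mimicked flooded paddy conditions: rice flatsedge propagules were sown in the upper 0.5 cm of silt loam in undrained 32 oz. containers (10.5 cm diameter), with water held 1.5 to 3 cm over the soil. After normal greenhouse care, plants were scored 0-9 for stand, vigor, malformation, size, chlorosis and appearance relative to controls.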

Assay [11] has as its system CASSIA OBTUSIFOLIA, L. The assay is described as follows: Preemergence herbicidal evaluation, CASOB (Sicklepod). The conditions noted are these: rated four to five weeks after treatment. In outline:
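Preemergence herbicidal activity against sicklepod was assessed by planting seed mixed with potting soil atop about one inch of soil in pint cups. After treatment the cups were watered and handled per standard greenhouse practice. Tests ended four to five weeks later, with plant stand, vigor, malformation, size, chlorosis and overall appearance scored 0-9 relative to a control.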

For assay [12], the system named is ECHINOCHLOA ORYZOIDES (ARD.)FRITSCH. The assay is described as follows: Preemergence weed control under flooded paddy conditions, ECHORC (Watergrass (Calif.)). To be noted: 0.500 kg/ha, preemergence, 3-4 weeks after treatment. In outline:
as §1

In assay [13] the test system is SETARIA VIRIDIS, (L) BEAU. The assay is described as follows: Preemergence herbicidal evaluation, SETVI (Foxtail, Green). The conditions noted are these: rated four to five weeks after treatment. In outline:
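Preemergence herbicidal activity against green foxtail was assessed by planting seed mixed with potting soil over about one inch of soil in individual pint cups. After treatment the cups stayed in a greenhouse under standard care. At four to five weeks, each cup was scored 0-9 relative to a control based on stand, vigor, malformation, size, chlorosis and overall appearance.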

In assay [14] the test system is GALIUM APARINE. The assay is described as follows: Preemergence herbicidal evaluation, GALAP (Galium). The conditions noted are these: Rate 0.500 kg/ha, rated four to five weeks after treatment. In outline: as §2

Take `Cn1c(=O)[nH]c(=O)n(-c2cc(Oc3c(F)cc(C(F)(F)F)cc3Cl)ccc2F)c1=O` [C, reference compound]: the SAGPY in assay [1] (Rate 0.031 kg/ha), in [1] (Rate 0.063 kg/ha), in assay [1] (Rate 0.125 kg/ha) and in assay [1] (Rate 0.250 kg/ha) was 0.0 each time. For the same molecule, the ZEAMX in assay [2] (Rate 0.031 kg/ha), in assay [2] (Rate 0.063 kg/ha), in [2] (Rate 0.125 kg/ha) and in assay [2] (Rate 0.250 kg/ha) was 0.0 in each case. The CYPSE in [3] (Rate 0.031 kg/ha), in [3] (Rate 0.063 kg/ha), in assay [3] (Rate 0.125 kg/ha) and in [3] (Rate 0.250 kg/ha) was 0.0 in each case. The “Herbicidal effect rating, ORYSAT” value in assay [4] (0.031 kg/ha) is listed as 3.0; in assay [4] (0.063 kg/ha), 3.5; in assay [4] (0.125 kg/ha), 3.5; in assay [4] (0.250 kg/ha), 3.5. For the same molecule, the MOOVA in [5] (Rate 0.031 kg/ha), in [5] (Rate 0.063 kg/ha), in assay [5] (Rate 0.125 kg/ha) and in assay [5] (Rate 0.250 kg/ha) was 9.0 in each case. Further, the “Herbicidal effect rating, CASOB” value in assay [6] (0.031 kg/ha) came to 2.0; in [6] (0.063 kg/ha) it was 4.0; in assay [6] (0.125 kg/ha) it was 4.0; in assay [6] (0.250 kg/ha), 6.0. Also, the GLXMAW in assay [7] (Rate 0.031 kg/ha), in assay [7] (Rate 0.063 kg/ha), in assay [7] (Rate 0.125 kg/ha) and in [7] (Rate 0.250 kg/ha) was 0.0 each time. In addition, the “Herbicidal effect rating, GLXMAW” value in assay [8] (0.031 kg/ha) turned out to be 3.5; in assay [8] (0.063 kg/ha) it was 4.5; in assay [8] (0.125 kg/ha), 4.5; in [8] (0.250 kg/ha) it was 5.0. Also, the AMBEL in assay [9] (Rate 0.031 kg/ha), in assay [9] (Rate 0.063 kg/ha), in [9] (Rate 0.125 kg/ha) and in assay [9] (Rate 0.250 kg/ha) was 0.0 throughout.

Turning to `COC(=O)Cn1c(=O)n(C)c(=O)n(-c2cc(Oc3ccc(SC)cc3Cl)ccc2[N+](=O)[O-])c1=O` [Compound 34, Methyl 3-{5-[2-chloro-4-(methylthio)-phenoxy]-2-nitrophenyl}tetrahydro-5-methyl-2,4,6-trioxo-s-triazine-1(2H)-acetate], the “Herbicidal effect rating, SAGPY” value in assay [1] turned out to be 0.0. Moreover, the ZEAMX herbicidal rating in assay [2] (Rate 0.125 kg/ha), in assay [2] (Rate 0.250 kg/ha) and in assay [2] (Rate 0.500 kg/ha) was 0.0 in each case. Also, the “Herbicidal effect rating, CYPSE” value in assay [3] was found to be 0.0. Besides, in [5], the “Herbicidal effect rating, MOOVA” value was 0.0. Moreover, in assay [10], the “Herbicidal effect rating, CYPIR” value amounted to 0.0. Also, the GLXMAW herbicidal rating in assay [7] (Rate 0.125 kg/ha), in [7] (Rate 0.250 kg/ha) and in assay [7] (Rate 0.500 kg/ha) was 0.0 throughout. Besides, the CASOB herbicidal rating in assay [11] (Rate 0.125 kg/ha), in assay [11] (Rate 0.250 kg/ha) and in [11] (Rate 0.500 kg/ha) was 0.0 in each case. Moreover, the “Herbicidal effect rating, ECHORC” value in assay [12] is reported as 0.0. The SETVI herbicidal rating in [13] (Rate 0.125 kg/ha), in [13] (Rate 0.250 kg/ha) and in [13] (Rate 0.500 kg/ha) was 0.0 each time. The AMBEL herbicidal rating in [9] (Rate 0.125 kg/ha), in assay [9] (Rate 0.250 kg/ha) and in assay [9] (Rate 0.500 kg/ha) was 0.0 each time.

As for `COC(=O)Cn1c(=O)n(C)c(=O)n(-c2cc(Oc3cc(Cl)cc(Cl)c3)ccc2[N+](=O)[O-])c1=O` [Compound 35, Methyl 3-[5-(3,5-dichlorophenoxy)-2-nitrophenyl]tetrahydro-5-methyl-2,4,6-trioxo-s-triazine-1(2H)-acetate], the “Herbicidal effect rating, SAGPY” value in assay [1] worked out at 0.0. In assay [2] (Rate 0.500 kg/ha), this molecule had a ZEAMX herbicidal rating of 0.0. Further, the “Herbicidal effect rating, CYPSE” value in [3] turned out to be 0.0. Also, the “Herbicidal effect rating, MOOVA” value in assay [5] is reported as 0.0. For the same molecule, the “Herbicidal effect rating, CYPIR” value in assay [10] was 0.0. Also, the CASOB rating in assay [6] (Rate 0.125 kg/ha), in assay [6] (Rate 0.250 kg/ha) and in [6] (Rate 0.500 kg/ha) was 0.0 in each case. The GLXMAW herbicidal rating in [7] (Rate 0.500 kg/ha) came out at 1.0. In addition, the CASOB herbicidal rating in assay [11] (Rate 0.500 kg/ha) came out at 0.0. Moreover, the GALAP herbicidal rating in assay [14] turned out to be 0.0. Besides, the “Herbicidal effect rating, ECHORC” value in assay [12] came to 0.0. This molecule also yielded an SETVI herbicidal rating in assay [13] (Rate 0.500 kg/ha) of 0.0. Besides, the AMBEL herbicidal rating in [9] (Rate 0.500 kg/ha) is on record as 0.0.

Regarding `COC(=O)Cn1c(=O)n(C)c(=O)n(-c2cc(Oc3ccccn3)ccc2[N+](=O)[O-])c1=O` [Compound 38, Methyl tetrahydro-3-methyl-5-[2-nitro-5-(2-pyridyloxy)phenyl]-2,4,6-trioxo-s-triazine-1(2H)-acetate], in assay [1], the “Herbicidal effect rating, SAGPY” value is given as 0.0. For the same molecule, the ZEAMX herbicidal rating in [2] (Rate 0.500 kg/ha) was 2.0. In addition, the “Herbicidal effect rating, CYPSE” value in [3] was 0.0. For the same molecule, the ORYSAT rating in assay [4] (Rate 0.500 kg/ha) is given as 0.0. Also, in assay [5], the “Herbicidal effect rating, MOOVA” value is recorded as 0.0. In assay [10], the “Herbicidal effect rating, CYPIR” value stood at 0.0. Further, in assay [6] (Rate 0.500 kg/ha), the CASOB rating is recorded as 0.0. In [7] (Rate 0.500 kg/ha), this molecule gave a GLXMAW herbicidal rating of 1.0. Also, in assay [8] (Rate 0.500 kg/ha), the GLXMAW rating was determined as 0.5. Further, in [11] (Rate 0.500 kg/ha), the CASOB herbicidal rating was found to be 0.0. The same molecule registered a GALAP herbicidal rating in assay [14] of 0.0. The “Herbicidal effect rating, ECHORC” value in assay [12] is 0.0. The molecule further displayed an SETVI herbicidal rating in assay [13] (Rate 0.500 kg/ha) of 0.0. For the same molecule, the AMBEL herbicidal rating in assay [9] (Rate 0.500 kg/ha) was determined as 0.0.
